As usually defined, the IC50 is the concentration that gives 50% inhibition.

The results in this text go back to patent publication US4921865A, “Aminoacylates of glycerol acetal” (Societe de Conseils de Recherches et d'Applications …, priority 1987, dated 1990).

For experiment [1], the system named is platelets (PAF induced platelet aggregation). In words: inhibition of PAF-induced platelet aggregation in platelet rich plasma. Format: cell-based, New Zealand rabbits. The following applies: Oryctolagus cuniculus; rabbit platelet rich plasma, 2.5 nM PAF. Here is the method: 1--INHIBITION OF THE PLATELETS AGGREGATION ON NEW ZEALAND RABBITS
The experimentation was conducted on platelets with plasma of New Zealand rabbits.
Blood samples were taken from auricular artery and placed in a citrate buffer (3.8 %; pH 7.4); blood was further centrifugated for 15 mn at 1200 RPM.
The tested sample was prepared in DMSO, then poured on platelets rich plasma for 1 mn, then a dose of 2.5 nM of PAF was added.
The determination is made on a Cronolog Coultronics apparatus which determines the transmission percentage corresponding to the maximum height of the peak before the desaggregation.
The percentage of variation of the inhibition with respect to the transmission percentage is calculated (control: pure DMSO).
This method was described in details in LABORATORY INVESTIGATIONS, Vol. 41, No. 3, p. 275, 1979, JEAN-PIERRE CAZENAVE, Dr. MED. , JACQUES BENVENISTE, Dr. MED., AND J. FRASER MUSTARD, M.D., "Aggregation of Rabbits Platelets by Platelet-Activating Factor Is Independent of the Release Reaction and the Arachidonate Pathway and Inhibited by Membrane-Active Drugs".
Five tests made on 5 different rabbits allowed us to calculate the IC50 of the various compounds using the linear regression test.

Experiment [2] concerns polymorphonuclear leukocytes (PMNs). In words: antagonism of polymorphonuclear leukocyte aggregation induced by PAF. Conditions: PAF 10^-8, rat PMNs. Type of experiment: cell-based, rat (Wistar). As for the experimental part:
Polymorphonuclear leukocytes (PMNs) were obtained as described by A. W. Ford-Hutchinson et al. (Br - J. Pharmacol. 76, 367-371, 1982). Cell suspensions ([…]) were prepared from peritoneal exudates obtained after a 5 ml IP injection of sodium caseinate 12% (w/v) to male Wistar rats, 300 g body weight.
After centrifugation, cells were washed with Hanks and resuspended in MEM/Hepes 30 mM medium (PM=7.4) at a concentration of 10^7 cells/ml. Cytochalasin B (5 μg/ml) was added 10 minutes before trigering aggregation to amplify the PMNs aggregation. The light transmittance through the cell suspension (400 μl) was measured under a 900 R/mn magnetic stirring, with a dual beam aggregometer (Chronolog Corp. Coultronics.)
The control cuvet is the cell suspension diluted to 20% of the cell count with MEM and the difference represents 100% transmittance. Change in transmittance, which occurs when PAF is added, was continuously recorded.
Drugs solubilized in MEM/Hepes were added (4 μl) to PMNs suspension 2 minutes before PAF addition.

The subject of experiment [3] is PAF-induced [Ca^2+ ]i mobilization, washed rabbits platelets. In words: inhibition of intracytosolic free calcium mobilization induced by PAF in washed rabbit platelets. Type of experiment: cell-based. Conditions: PAF 2×10^-9 M; resting about 150 nM. As for the experimental part: Blood was taken from the auricular artery of the rabbit on citric acid/sodium citrate/dextrose and anticoagulan and the washed platelets were prepared according to Ardlie et al., Brit. J. Pharmacology, 19, 7-17, 1970. They were incubated with acetylsalicylic salt (100 μM, 30 minutes) to avoid thromboxane induced aggregation. They were then loaded with the fluorescent calcium indicator dye quin 2 by incubation with quin 2 aceto-methylester (15 μM in DMSO, 20 minutes at room temperature) which penetrates the cell membrane and after hydrolysed is trapped in the platelet. Drugs were preincubated with platelets for 15 minutes simultaneously to CP/CPK mixture which destroys secreted ADP.
Fluorescent measurement was then performed (excitation λ=339 nm, emission λ=494 nm) after PAF addition to platelet suspension. The fluorescence intensity is proportional to the cytosolic free calcium level [Ca^2+ ]i which can be quantified as described by Tsien et al., J. Cell Biol., 94, 325-334, 1982.
On the technique in general: A change in cytosolic calcium serves as a functional read-out for many receptors and channels.

The target of experiment [4] is T1, [^3 H]-PAF binding, platelet membrane (Oryctolagus cuniculus, UniProt G1TEI7).
T1 construct: Platelet membrane homogenate was stored at -80° C; from tissue; host or cells: rabbit platelets (membrane homogenate from lysed washed platelets)
T1 sequence (G1TEI7 1-342): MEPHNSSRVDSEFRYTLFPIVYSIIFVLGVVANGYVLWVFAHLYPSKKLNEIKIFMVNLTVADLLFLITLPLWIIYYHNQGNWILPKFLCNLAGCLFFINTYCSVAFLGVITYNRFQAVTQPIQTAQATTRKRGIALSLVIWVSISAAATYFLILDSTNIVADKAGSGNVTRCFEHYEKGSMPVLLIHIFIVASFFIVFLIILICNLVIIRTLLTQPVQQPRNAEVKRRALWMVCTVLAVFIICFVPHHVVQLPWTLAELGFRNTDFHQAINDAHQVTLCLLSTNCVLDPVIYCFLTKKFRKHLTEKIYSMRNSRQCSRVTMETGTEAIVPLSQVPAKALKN
Nature of the experiment: inhibition of specific [3H]-PAF binding to rabbit platelet membranes. Conditions: 1 nM [3H]-PAF, 0°C 1 h 30. Here is the method: Synthetic tritiated [^3 H]-PAF used was in ethanol solution with a specific activity of 59.5 ci/mmols. Unlabelled PAF and lyso-PAF were solubilized in ethanol solution and stored at -80° C. The compounds were solubilized in DMSO.
Rabbit whole blood (6 volumes) was drawn from the central ear artery into 1 volume of ACD solution (citric acide 1.4 g, sodium citrate 2 5 g, Dextrose 2 g per 100 ml of H2 O) and centrifuged at 150 g for 15 minutes. The platelet-rich plasma (PRP) was carefully removed and centrifuged for 15 minutes at 1000 g. The platelet pellet was then washed 3 times: twice in Tris-HCl buffer 10 mM, pH 7.4 containing NaCl 150 mM, MgCl2 5 mM, EDTA 2 mM and the last time in the same but sodium-free buffer.
The platelet pellet was resuspended in this latter buffer, quickly frozen in liquid nitrogen and slowly thawed at room temperature for at least 3 times as described by T. Y. Shen et al. The lysed platelets were centrifuged at 100,000 g for 30 minutes in a BECKMAN model L8.55 ultra centrifuge (rotor 50.2 Ti). Platelet membrane homogenate was stored at -80° C. and used within two weeks without noticeable changes in PAF-acether binding characteristics.
Protein contain was determined by the Lowry method using bovine serum albumine as standard.
60 to 100 μg of membrane proteins were added to a final volume of 1 ml in plastic tubes containing 1 nM [^3 H]-PAF in Tris-HCl 10 mM pH 7 buffer containing 0.025 % bovine serum albumin and incubated with or without unlabelled PAF or PAF-antagonists. The incubation was carried out for 1 h 30 at 0° C. The bound [^3 H]-PAF was separated from the free [^3 H]-PAF by immediate filtration through whatman GF/C glass fiber filters under vacuum (Brandel system). The reaction and the filters were washed 3 times with 5 ml of ice-cold buffer. The filters were then placed into polyethylene phials filled up with 10 ml of liquid scintillation fluid and the radioactivity was measured by an LKB β counter with 45% efficiency.
The non specific binding was determined in the presence of 10^-6 M of unlabelled PAF. The specific binding was calculated by substracting non specific binding from the total binding. The inhibition by compounds on the specific [^3 H]-PAF binding was determined as the percent inhibition by the equation: [formula]

Molecules are shown by their SMILES.

In experiment [1], `CCCCCCCCCCCCCCCCCC1(C)OCC(COC(=O)CCC[n+]2cccc3ccccc32)O1` (stereo not drawn) [Example 2, 2-heptadecyl 2-methyl 4-[4'(N-quinolinium)butyryloxymethyl]1,3-dioxolan chloride] gave an IC50 of 1.2 µM.

Turning to `CCCCCCCCCCCCCCCCCC1OCC(COC(=O)CCC[n+]2ccccc2)O1` (stereo not drawn) [Example 4, 2-heptadecyl 4-[4'-(N-pyridinium)butyryloxymethyl] 1,3-dioxolan chloride], inhibition in experiment [1] was half-maximal at 7 µM (IC50).

In experiment [1], `CCCCCCCCCCCCCCCCCC1(C)OCC(COC(=O)CCC[n+]2ccsc2)O1` (stereo not drawn) [Example 3, 2-heptadecyl 2-methyl 4-[4'-(N-thiazolinium)butyryloxymethyl]1,3-dixolan chloride] displayed an IC50 of 21.5 µM.

Take `CCCCCCCCCCCCCCCCCC1(C)OCC(COC(=O)CCCCCCCCCC[n+]2ccccc2)O1` (stereo not drawn) [Example 12, 2-heptadecyl 2-methyl 4-[11'-(N-pyridiniumundecanoyloxymethyl) 1,3-dioxolan bromide]: 31.2 µM corresponded to half-maximal inhibition in experiment [1] (IC50).

The compound `COc1cc(C2(C)OCC(COC(=O)CCC[n+]3ccccc3)O2)cc(OC)c1OC` (stereo not drawn) [Example 8, 2-(3,4,5-trimethoxyphenyl) 2-methyl 4-[4'-(N-pyridinium)butyryloxymethyl] 1,3-dioxolan chloride] came in with an IC50 in experiment [1] of 11.3 µM.

Take `CCCCCCCCCCCCCCCCCC1(CCC)OCC(COC(=O)CCC[n+]2ccccc2)O1` (stereo not drawn) [Example 6, 2-heptadecyl 2-(n-propyl 4-(4'-(N-pyridinium)butyryloxymethyl]1,3-dioxolan chloride]: in experiment [1], inhibition was half-maximal at 3.04 µM (IC50). This IC50 lies about 3.7-fold lower than the previous one.

Regarding `CCCCCCCCCCCCCCCCOCC(COP(=O)([O-])OCC[N+](C)(C)C)OC(C)=O` (stereo not drawn) [PAF, reference compound], the “aggregation of PMNs induced” value in experiment [2] is given as 55 to 70%. Besides, the “[Ca^2+ ]i level after stimulation” value in experiment [3] fell in the range of 400 to 600 nM.

For the compound `CCCCCCCCCCCCCCCCCC1(C)OCC(COC(=O)CCCC[n+]2ccccc2)O1` (stereo not drawn) [Example 7, 2-heptadecyl 2-methyl 4-[5'-(N-pyridinium)pentanoyloxymethyl]1,3-dioxolanchloride], half-maximal inhibition in experiment [1] (IC50) was put at 5 µM.

With `CCCCCCCCCCCCCCCCCC1(CCC)OCC(COC(=O)CCCCC[n+]2ccccc2)O1` (stereo not drawn) [Example 13, 2-heptadecyl 2-(n-propyl) 4-[6'-(N-pyridinium)hexanoylmethyl] 1,3-dioxolanbromide], in experiment [1], the midpoint of inhibition, the IC50, lay at 1.73 µM.

As to `CCCCCCCCCCCCCCCCCC1OCC(COC(=O)CCC[n+]2cccc3ccccc32)O1` (stereo not drawn) [Example 5, 2-heptadecyl 4[4'-(N-quinolinium)butyryloxymethyl] 1,3 dioxalan chloride], half-maximal inhibition in experiment [1] (IC50) was put at 3.1 µM. This IC50 is about 1.8-fold higher than that of the compound before.

Regarding `CCCCCCCCCC1(C)OCC(COC(=O)CCCCC[n+]2ccccc2)O1` (stereo not drawn) [Example 14, 2-nonyl 2-methyl 4-[6'-(N-pyridiniumhexanoyloxymethyl] 1,3-dioxolan bromide], the IC50 in experiment [4] came to 0.61 µM; in experiment [1], 1.46 µM.

As to `CCCCCCCCCCCCCCCCCC1(C)OCC(COC(=O)CCC[n+]2ccccc2)O1` (stereo not drawn) [Example 1, 2-heptadecyl 2-methyl 4-[4'-(N-pyridinium)butyryloxymethyl]-1,3-dioxolan chloride], the IC50 is 0.45 µM in experiment [4] and 2.2 µM in experiment [1].
